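Protocol summary: plate cells (96-well), add compound at 5 concentrations, incubate 48 h, interpolate endpoints linearly. At the GI50, growth is halved. TGI: concentration producing complete growth inhibition.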
Assays:
Assay in all cases: NCI-60 cell line screen, 48 h
MALME-3M melanoma = test system: MALME-3M melanoma
NCI-H23 lung = test system: NCI-H23 lung
UACC-62 melanoma = test system: UACC-62 melanoma
COLO 205 colon = test system: COLO 205 colon
MCF7 breast = test system: MCF7 breast
SNB-19 CNS = test system: SNB-19 CNS
SR leukemia = test system: SR leukemia
OVCAR-3 ovarian = test system: OVCAR-3 ovarian
NCI-H522 lung = test system: NCI-H522 lung
T-47D breast = test system: T-47D breast

Row | Structure (SMILES) | TGI (MALME-3M melanoma) | TGI (NCI-H23 lung) | TGI (UACC-62 melanoma) | TGI (COLO 205 colon) | TGI (MCF7 breast) | TGI (SNB-19 CNS) | TGI (SR leukemia) | TGI (OVCAR-3 ovarian) | TGI (NCI-H522 lung) | TGI (T-47D breast) | GI50 (NCI-H23 lung) | GI50 (UACC-62 melanoma) | GI50 (COLO 205 colon) | GI50 (OVCAR-3 ovarian) | GI50 (MCF7 breast) | GI50 (SNB-19 CNS) | GI50 (SR leukemia) | GI50 (NCI-H522 lung)
1 | O=C1c2ccccc2C(=O)c2c1c1cc(O)ccc1n2Cc1ccc(Cl)cc1Cl | 63.9 µM | 19.9 µM | 21.8 µM | 29.8 µM | 16.5 µM | 34.7 µM | > 100 µM | – | – | – | – | – | – | – | – | – | – | –
2 | CC(C)Oc1c(O)c2c3c(oc(=O)n3C=CC2c2ccccc2F)c1OC(C)C (configuration not stated) | > 100 µM | > 100 µM | > 100 µM | 36.6 µM | > 100 µM | > 100 µM | 46.1 µM | > 100 µM | > 100 µM | – | – | – | – | – | – | – | – | –
3 | Cc1cccc2ns[s+]c12 | > 100 µM | > 100 µM | > 100 µM | > 100 µM | – | > 100 µM | – | > 100 µM | – | – | – | – | – | – | – | – | – | –
4 | COc1cc(NS(C)(=O)=O)ccc1N1Cc2cnc3ccc4[nH]ccc1c4c23 | – | > 100 µM | > 100 µM | > 100 µM | > 100 µM | > 100 µM | – | > 100 µM | > 100 µM | 83.6 µM | – | – | – | – | – | – | – | –
5 | Nc1nc(NC(=O)C2=NS(=O)(=O)c3cc(S(N)(=O)=O)c(Cl)cc3N2)n[nH]1 | > 100 µM | > 100 µM | > 100 µM | > 100 µM | – | > 100 µM | > 100 µM | > 100 µM | > 100 µM | – | – | – | – | – | – | – | – | –
6 | CC1=C2CC3=C(C)C(=O)O[C@H]3C[C@@H](C)[C@@H]2CC1 | > 100 µM | > 100 µM | > 100 µM | > 100 µM | – | > 100 µM | > 100 µM | > 100 µM | – | – | – | – | – | – | – | – | – | –
7 | CC(C)(C)OC(=O)NCCNC(=O)OCc1ccccc1 | > 100 µM | > 100 µM | > 100 µM | > 100 µM | > 100 µM | > 100 µM | > 100 µM | > 100 µM | > 100 µM | – | – | – | – | – | – | – | – | –
8 | CCOC(=O)C1(C/C=C\CBr)CCCCCCC1=O (configuration not stated) | > 100 µM | > 100 µM | > 100 µM | > 100 µM | > 100 µM | > 100 µM | – | – | > 100 µM | > 100 µM | – | – | – | – | – | – | – | –
9 | COC(=O)C1(C(=O)OC)CC2=C(S(=O)(=O)c3ccccc3)C[C@@H](C#N)[C@H]2C1 | > 100 µM | > 100 µM | – | > 100 µM | > 100 µM | > 100 µM | – | 75.6 µM | > 100 µM | – | – | – | – | – | – | – | – | –
10 | CC(C)(C)OC(=O)N(CCCN)CCCCN(CCCN)C(=O)OC(C)(C)C | – | > 100 µM | > 100 µM | > 100 µM | > 100 µM | > 100 µM | > 100 µM | > 100 µM | > 100 µM | > 100 µM | – | – | – | – | – | – | – | –
11 | O=C(c1ccccc1)c1cc(-c2ccccc2)c(-c2ccccc2)[nH]c(=O)c1=O | > 100 µM | 49.4 µM | 82.2 µM | 61.5 µM | > 100 µM | > 100 µM | 57.1 µM | > 100 µM | 74.4 µM | – | – | – | – | – | – | – | – | –
12 | CC(C)CCC[C@@H](C)[C@H]1CC[C@H]2[C@@H]3CC=C4CC(OCCCCN(O)CCCSC5OC(CO)C(O)C(O)C5O)CC[C@]4(C)[C@H]3CC[C@]12C (some centres not stated) | – | > 100 µM | > 100 µM | 47.3 µM | – | > 100 µM | > 100 µM | – | 49.6 µM | – | – | – | – | – | – | – | – | –
13 | NC(N)=NS(=O)(=O)c1ccc(NC(=O)c2c3ccccc3nc3ccccc23)cc1 | > 100 µM | > 100 µM | > 100 µM | > 100 µM | > 100 µM | > 100 µM | > 100 µM | > 100 µM | > 100 µM | – | – | – | – | – | – | – | – | –
14 | CC1(C)CC(=O)C2=C(C1)OC1=C(CC(C)(C)CC1=O)C2c1ccccc1Cl (configuration not stated) | > 100 µM | > 100 µM | > 100 µM | > 100 µM | – | > 100 µM | > 100 µM | > 100 µM | > 100 µM | > 100 µM | – | – | – | – | – | – | – | –
15 | COc1cc2c(oc(=O)c3c4oc([Si](C)(C)C)cc4cc(OC)c23)c2cccc(O)c12 | > 100 µM | > 100 µM | > 100 µM | > 100 µM | – | > 100 µM | > 100 µM | > 100 µM | > 100 µM | – | – | – | – | – | – | – | – | –
16 | O=S(=O)(CC#CCS(=O)(=O)c1ccccc1)c1ccccc1 | 3.82 µM | 12.2 µM | 11.5 µM | 5.19 µM | 6.7 µM | 32.9 µM | > 100 µM | 2.91 µM | 1.63 µM | – | – | – | – | – | – | – | – | –
17 | O=S(=O)(N1CCCCN(S(=O)(=O)C(F)(F)F)CCCN(S(=O)(=O)C(F)(F)F)CCCN(S(=O)(=O)C(F)(F)F)CCCCN(S(=O)(=O)C(F)(F)F)CCCN(S(=O)(=O)C(F)(F)F)CCC1)C(F)(F)F | 49.5 µM | > 100 µM | > 100 µM | > 100 µM | > 100 µM | > 100 µM | – | > 100 µM | > 100 µM | > 100 µM | – | – | – | – | – | – | – | –
18 | COc1cc2c(cc1C)NC(=O)/C2=C/c1c(Cl)n(C)c2ccccc12 | 22.5 µM | 21.6 µM | 26.8 µM | 31.2 µM | 25.7 µM | 38.6 µM | – | 15.3 µM | – | 19.3 µM | – | – | – | – | – | – | – | –
19 | CCC1OC(=O)C(C)C(OC2CC(C)(O)C(O)C(C)O2)C(C)C(O)C(C)(O)CC(C)C(=O)C(C)C(O)C1C (configuration not stated) | > 300 µM | > 300 µM | > 300 µM | > 300 µM | > 300 µM | > 300 µM | – | > 300 µM | > 300 µM | – | – | – | – | – | – | – | – | –
20 | CC(C)OP(=O)(OC(C)C)c1ncn(-c2ccc([N+](=O)[O-])cc2)n1 | > 100 µM | > 100 µM | > 100 µM | > 100 µM | – | > 100 µM | > 100 µM | > 100 µM | > 100 µM | – | – | – | – | – | – | – | – | –
21 | Nc1cc(N)c2nc(-c3ccccc3)c(Sc3ccc(F)cc3)nc2c1 | – | 39.4 µM | 31.8 µM | 47.9 µM | 62.5 µM | 41.7 µM | > 100 µM | 33.6 µM | > 100 µM | – | 19 µM | 16.7 µM | 22.1 µM | 16.3 µM | 20 µM | 20 µM | 35.2 µM | > 100 µM
22 | Cc1ccc(-c2c(C#N)c(O)n(NS(=O)(=O)c3ccccc3)c(=O)c2C#N)cc1 | > 100 µM | – | > 100 µM | > 100 µM | > 100 µM | > 100 µM | – | – | > 100 µM | – | – | – | – | – | – | – | – | –
23 | COc1c(-c2ccc3c(c2)OCO3)oc2cc3c(c(OC)c2c1=O)OCO3 | 67.6 µM | 53.5 µM | 64.1 µM | > 100 µM | 40.6 µM | 43.4 µM | – | 74.9 µM | 52.6 µM | 36.7 µM | – | – | – | – | – | – | – | –

From PubChem BioAssay (NCI)
